Tests used:
[1] = Cytotoxicity against human Gingival fibroblasts at 20 uM by SRB assay; parameters: species or system Gingival fibroblast; details: read-out: INH
HT-29 [2] = test: Antiproliferative activity against human HT-29 cells at 20 uM by SRB assay; format: functional
KB = test: Antiproliferative activity against human KB cells by SRB assay; format: functional, cell-based
MCF7 = test: Antiproliferative activity against human MCF7 cells by SRB assay; format: functional, cell-based
HeLa = test: Antiproliferative activity against human HeLa cells by SRB assay; format: functional, cell-based
HT-29 [3] = test: Antiproliferative activity against human HT-29 cells by SRB assay; format: functional, cell-based

IC50 (KB) | IC50 (MCF7) | IC50 (HeLa) | SMILES | cytotoxicity at 20 µM [1] | inhibition at 20 µM (HT-29 [2]) | IC50 (HT-29 [3])
1200 nM | 8200 nM | 70 nM | CC(C)[C@@H]1C[C@@]2(C)[C@@H]3CC[C@@](C)(C[C@@H]31)[C@@H]2NC=O (relative stereo) | 25% | 35% | –
2400 nM | 650 nM | 130 nM | CC(C)[C@@H]1C[C@@]2(C)[C@@H]3CC[C@](C)(NC=O)[C@H]2C[C@@H]31 (relative stereo) | 65% | – | 6800 nM

SMILES | IC50 (KB) | IC50 (MCF7) | IC50 (HeLa) | cytotoxicity at 20 µM [1] | inhibition at 20 µM (HT-29 [2]) | IC50 (HT-29 [3])
CC[C@@]1(O)C(=O)OCc2c1cc1n(c2=O)Cc2cc3ccccc3nc2-1 [CAMPTOTHECIN] | 20 nM | 3.3 nM | 130 nM | – | – | 0.7 nM

Source: ChEMBL document CHEMBL3085753, “Bridged tricyclic sesquiterpenes from the tubercle nudibranch Phyllidia coelestis Bergh” (J Nat Prod, 2013)
